Data published in ChEMBL document CHEMBL1147879, “Synthesis of soluble multivalent glycoconjugates that target the Hc region of botulinum neurotoxin A” (Bioorg Med Chem Lett, 2007).
Calls of active or inactive are those of the source. No cut-off for these calls is given here.

Target: Synaptosomal-associated protein 25 (Rattus norvegicus) (UniProt P60881)
Assay: Inhibition of BoNT/A-mediated SNAP25 cleavage in rat spinal card cells after 24 hrs by Western blot analysis
Type: cell-based

Sequence of Synaptosomal-associated protein 25 (Rattus norvegicus) (P60881 whole entry, looked up): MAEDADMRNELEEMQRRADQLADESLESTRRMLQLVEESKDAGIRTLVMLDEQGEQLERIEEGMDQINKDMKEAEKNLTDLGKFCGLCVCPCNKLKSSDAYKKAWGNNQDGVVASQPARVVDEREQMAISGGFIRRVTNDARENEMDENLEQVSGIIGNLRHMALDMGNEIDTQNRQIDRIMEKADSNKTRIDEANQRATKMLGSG

**Q.** For `CC(=O)N[C@@H]1[C@@H]([C@@H](C)C(O)CCO)O[C@](SCC(=O)NCCOCCOCCOCCn2cc(CNC(=O)c3cc(NC(=O)CN)cc(C(=O)NCc4cn(CCOCCOCCOCCNC(=O)CS[C@]5(C(=O)O)C[C@H](O)[C@@H](NC(C)=O)[C@H]([C@H](C)C(O)CCO)O5)nn4)c3)nn2)(C(=O)O)C[C@H]1O` (some centres not stated), which Activity is on record?
**A.** The Activity was “Active”.

**Q.** How did the Activity turn out when `CC(=O)N[C@@H]1[C@@H]([C@@H](C)C(O)CCO)O[C@](SCC(=O)NCCOCCOCCOCCn2cc(CNC(=O)c3cc(NC(=O)CNC(=O)c4cc(NC(=O)CN)cc(C(=O)NCC(=N)Nc5cc(C(=O)NCc6cn(CCOCCOCCOCCNC(=O)CS[C@@]7(C(=O)O)C[C@@H](O)[C@H](NC(C)=O)[C@@H]([C@@H](C)C(O)CCO)O7)nn6)cc(C(=O)NCc6cn(CCOCCOCCOCCNC(=O)CS[C@@]7(C(=O)O)C[C@@H](O)[C@H](NC(C)=O)[C@@H]([C@@H](C)C(O)CCO)O7)nn6)c5)c4)cc(C(=O)NCc4cn(CCOCCOCCOCCNC(=O)CS[C@]5(C(=O)O)C[C@H](O)[C@@H](NC(C)=O)[C@H]([C@H](C)C(O)CCO)O5)nn4)c3)nn2)(C(=O)O)C[C@H]1O` (some centres not stated) was run?
**A.** The Activity was “Active”.
